Source: patent US10272158B2, “Compounds for treating biofilm infection” (Board of Regents, The University of Texas System, priority 2014, dated 2019)
In brackets after ≈: the same amount, converted by molar mass. Several values for one entry are separate records, joined by “and”; a condition that tells them apart may be missing. Equal entries are not always repeated.

Key:
Format in all cases: cell-based, Pseudomonas aeruginosa PAO1
[1] = tested on: P. aeruginosa biofilm formation phase; test: MIC80 in biofilm formation phase, XTT reduction assay; settings: Pseudomonas aeruginosa, 24 h, read-out: critical concentration necessary for 80% suppression of P. aeruginosa viability (MIC80)
Protocol: (§1) Pseudomonas aeruginosa (P. aeruginosa) PAO1 was used throughout the study. Blood agar and Brain heart infusion (BHI) solution were used for culturing P. aeruginosa.
(§2) Prior to each experiment, P. aeruginosa was cultured on blood agar for 18 h at 37° C. A loopful of the overnight bacterial growth was inoculated into BHI medium, and incubated for 18 h in an orbital shaker (80 rpm) at 37° C. The resultant growth was harvested, washed twice in Phosphate Buffered Saline (PBS, pH 7.4) and resuspended. The concentration of P. aeruginosa was adjusted to 1×10^7 cells/mL by spectrophotometry and confirmed by hemocytometric counting.
(§3) P. aeruginosa biofilm was developed as described (Bandara et al., 2010) with minor modifications. Commercially available pre-sterilized, polystyrene, flat bottom 96-well microtiter plates (BD Biosciences, California, USA) were used. […]
Bacterial cell suspension was added in sterile 96 well plates and incubated for 90 min under similar conditions as described in the section of Biofilm Formation. […] After 24 h incubation under 37° C. and 80 rpm, reduction assay of 2,3-bis(2-methoxy-4-nitro-5-sulfo-phenyl)-2H-tetrazolium-5-carboxanilide (XTT) was performed to quantify the viability of biofilm and crystal violet assay was used to measure biofilm biomass.

[2] = tested on: P. aeruginosa biofilm formation phase; test: Crystal violet assay of biofilm biomass, biofilm formation phase
Protocol: Bacterial cell suspension was added in sterile 96 well plates and incubated for 90 min under similar conditions as described in the section of Biofilm Formation. After the initial adhesion phase, adherent cells were treated with different samples in a concentration gradient, including control (PBS), tobramycin, and Tob-PEG. After 24 h incubation under 37° C. and 80 rpm, reduction assay of 2,3-bis(2-methoxy-4-nitro-5-sulfo-phenyl)-2H-tetrazolium-5-carboxanilide (XTT) was performed to quantify the viability of biofilm and crystal violet assay was used to measure biofilm biomass. At the end of incubation of both test and control biofilm, crystal violet assay was performed to quantify biofilm biomass. Biofilm was carefully washed twice with PBS and stained with 1% crystal violet solution for 15 min at 25° C. without shaking. Wells were carefully washed three times with PBS to remove excess stain and air dried in room temperature. Thirty percent acetic acid was added to the wells containing stained biofilm and incubated for 20 min at 25° C. The solution was transferred to a new well plate and optical density was measured at 570 nm.

[3] = tested on: P. aeruginosa pre-formed biofilm; test: Elimination of pre-formed biofilm in time dependent test (XTT); settings: each at its biofilm MIC80 (Tob-PEG 27.81, tobramycin 89.80 μmol/L), 1-36 h
Protocol: P. aeruginosa pre-formed biofilm was developed as described previously and was treated with different samples at respective biofilm MIC80 concentrations. The plates were then incubated for 24 h at 37° C. and 80 rpm. XTT reduction assay was performed to selected samples at predetermined time points (1 h, 2 h, 3 h, 4 h, 5 h, 6 h, 9 h, 12 h, 15 h, 18 h, 21 h, 24 h and 36 h after incubation) to assess the percentage of time dependent bacterial inhibition.

[4] = tested on: P. aeruginosa planktonic phase; test: Minimum inhibitory concentration (MIC80) in planktonic phase, broth microdilution, optical density 595 nm; settings: 24 h, 80% growth inhibition
Protocol: Pseudomonas aeruginosa (P. aeruginosa) PAO1 was used throughout the study. Blood agar and Brain heart infusion (BHI) solution were used for culturing P. aeruginosa. Prior to each experiment, P. aeruginosa was cultured on blood agar for 18 h at 37° C. A loopful of the overnight bacterial growth was inoculated into BHI medium, and incubated for 18 h in an orbital shaker (80 rpm) at 37° C. The resultant growth was harvested, washed twice in Phosphate Buffered Saline (PBS, pH 7.4) and resuspended. The concentration of P. aeruginosa was adjusted to 1×10^7 cells/mL by spectrophotometry and confirmed by hemocytometric counting. Briefly, bacterial cell suspension (5×10^5 cells/mL) were treated with the antibiotic in a concentration gradient and incubated in a 96 well microtiter plate for 24 h at 35° C. At the end of the incubation, the optical density of the bacterial growth was measured by a spectrophotometer at 595 nm. The lowest concentration of the antibiotic at which 80% of bacterial growth inhibition was achieved was considered as the MIC80 of this antibiotic against P. aeruginosa. The assay was performed quadruplicates at three times.

[5] = tested on: P. aeruginosa pre-formed biofilm; test: MIC80 in pre-formed biofilm phase, XTT reduction assay; settings: pre-formed biofilm (24 h), 24 h treatment
Protocol: as §1, §2, §3
P. aeruginosa pre-formed biofilm was developed after 24 h incubation of adherent cells in sterile 96 well plates, as described in the section of Biofilm Formation. […] At the end of incubation period, XTT reduction assay was performed to quantify the viability of biofilm and crystal violet assay was used to measure biofilm biomass.

MIC80 [1]: 1.4 µM (≈ 0.655 µg/mL)
Minimum inhibitory concentration (MIC80) [4]: 1.4 µM (≈ 0.655 µg/mL)
MIC80 ([4]; Pseudomonas aeruginosa): 1.4 µM (≈ 0.655 µg/mL)
critical concentration needed for 80% inhibition of viable P. aeruginosa pre-formed biofilm (MIC80) [5]: 89.80 µM and 89.8 µM
Compound: NC[C@H]1O[C@H](O[C@H]2[C@H](O)[C@@H](O[C@H]3O[C@H](CO)[C@@H](O)[C@H](N)[C@H]3O)[C@H](N)C[C@@H]2N)[C@H](N)C[C@@H]1O [tobramycin, Tobramycin]
increment of the biofilm biomass compared to control ([2]; 1.40 μmol/L, 24 h): 17%
biomass change versus untreated control ([2]; signed change): +17%
time dependent biofilm inhibition [3]: After 18 h, tobramycin was superior
